Laboratory results taken from patent publication US20250090622A1, “ANGIOTENSIN COMPOSITIONS AND METHODS RELATED THERETO” (LA JOLLA PHARMA, LLC, priority 2017, published 2025).
Read-outs that look alike come from different tables or passages of the source.

Assays:
[1] = system: hypotension in distributive shock; experiment: clinical study of angiotensin II in treating hypotension in distributive shock; type: in vivo, human; settings: 95% CI 4.76 to 13.3; P<0.001
Method: Vials containing 2 milliliters of 2.5 mg/mL (mg) angiotensin II in 0.9% saline and 25 mg/mL mannitol were evaluated in a clinical study of angiotensin II in treating hypotension in distributive shock (Khanna et al., N Engl J Med 2017; 377:419-430). Patients were currently on other vasopressors but still hypotensive (mean arterial pressure (MAP)[…]65 mmHg). Administration of angiotensin II was begun at a rate of 20 ng/kg/min, and titrated up or down to achieve and maintain an increased MAP of 10 mmHg above baseline or at least 75 mmHg. For the first 3 hours of treatment, the other vasopressors were held constant and the maximum dose allowed of angiotensin II was 200 ng/kg/min. At 3 hours and 15 minutes, all vasopressors could be titrated to maintain a MAP between 65-75 mmHg and an angiotensin II rate of 1.25-40 ng/kg/min. Angiotensin II could be administered for up to 7 days in this study. In this study, about 1 vial of drug (5 mg) was sufficient to treat each patient for a 24-hour period, and patients were on the treatment for an average of 2 days. Most patients required at least 1 mg of drug per day.
A total of 344 patients were assigned to one of the two regimens; 321 received a study intervention (163 received angiotensin II, and 158 received placebo) and were included in the analysis.

[2] = system: sepsis-induced hypotension; settings: porcine fecal peritonitis septic shock; hemodynamic effects similar to norepinephrine; cited from earlier work
blood pressure [3] = settings: intravenous dosing, rats; cited from earlier work
blood pressure [4] = settings: intravenous dosing, dogs; cited from earlier work
blood pressure [5] = settings: intravenous dosing, rabbits; cited from earlier work

For `CC[C@H](C)[C@H](NC(=O)[C@H](Cc1ccc(O)cc1)NC(=O)[C@@H](NC(=O)[C@H](CCCNC(=N)N)NC(=O)[C@@H](N)CC(=O)O)C(C)C)C(=O)N[C@@H](Cc1c[nH]cn1)C(=O)N1CCC[C@H]1C(=O)N[C@@H](Cc1ccccc1)C(=O)O` [angiotensin II, H-Asp-Arg-Val-Try-Ile-His-Pro-Phe-OH], the “odds ratio for primary end point, angiotensin II vs placebo” value [1] is listed as 7.95, the “effect on sepsis-induced hypotension” value [2] is listed as “reversed sepsis-induced hypotension” and the “effect on blood pressure” value (blood pressure [3]) is listed as “increase in blood pressure”. For the same molecule, the “effect on blood pressure” value (blood pressure [4]) was “increase in blood pressure” and the “effect on blood pressure” value (blood pressure [5]) was “increase in blood pressure”.
